Test [1] addresses T1, TREX1 (Three-prime Repair EXonuclease 1), mouse (Mus musculus, UniProt Q91XB0).
T1 construct: full-length mouse TREX1 (wild-type), overexpressed in HEK293T
T1 sequence (Q91XB0 1-314): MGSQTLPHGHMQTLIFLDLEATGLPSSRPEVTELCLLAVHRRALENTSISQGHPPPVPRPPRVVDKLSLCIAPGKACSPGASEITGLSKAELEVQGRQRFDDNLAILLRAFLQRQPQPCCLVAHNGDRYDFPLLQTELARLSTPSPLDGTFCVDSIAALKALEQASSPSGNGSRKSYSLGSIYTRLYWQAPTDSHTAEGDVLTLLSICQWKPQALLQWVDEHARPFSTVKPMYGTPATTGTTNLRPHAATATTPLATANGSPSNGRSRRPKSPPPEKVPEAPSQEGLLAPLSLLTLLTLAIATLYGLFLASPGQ
In words: fluorescence exonuclease assay (FAM-12mer-BHQ1) in HEK293T overexpression lysate, with D18N and empty-vector controls. It counts as biochemical.

Test [2] has as its target T2, TREX1 (Three-prime Repair EXonuclease 1), human (Homo sapiens, UniProt Q9NSU2).
T2 construct: endogenous human TREX1 in THP1-Dual cell lysate
T2 sequence (Q9NSU2 1-314): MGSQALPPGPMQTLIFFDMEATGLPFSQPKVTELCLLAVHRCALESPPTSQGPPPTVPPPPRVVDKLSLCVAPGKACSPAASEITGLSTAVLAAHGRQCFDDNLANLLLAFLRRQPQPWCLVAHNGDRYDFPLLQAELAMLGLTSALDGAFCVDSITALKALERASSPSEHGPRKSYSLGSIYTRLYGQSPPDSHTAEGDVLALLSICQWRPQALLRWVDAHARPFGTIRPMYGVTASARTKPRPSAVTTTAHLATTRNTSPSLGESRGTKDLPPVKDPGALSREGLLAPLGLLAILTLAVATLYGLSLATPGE
In words: BioVision […]' to […]' exonuclease activity assay in THP1-Dual lysate, with TREX1 knockout lysate control. It counts as biochemical.

As usually defined, the IC50 is the concentration at which inhibition is half-maximal. With VB-85680, the IC50 in test [1] came to 3.1 nM; in test [2], 48.8 nM.

For the origin of these results see publication PMC11343403, “A novel TREX1 inhibitor, VB-85680, upregulates cellular interferon responses” (PLOS ONE, 2024).
